Data on 15 molecules can be found in patent US20030109550A1, “Substituted indazole compounds for the treatment of inflammation” (priority 2001, published 2003).

For series [1], the target named is T1, IKK heterodimer (rhIKK1/IKK2 heterodimer) (Homo sapiens, UniProt O14920+O15111).
T1 construct: made in house; host or cells: insect cells (baculovirus coinfection; SF9 cell paste)
T1 sequence (O15111 1-745): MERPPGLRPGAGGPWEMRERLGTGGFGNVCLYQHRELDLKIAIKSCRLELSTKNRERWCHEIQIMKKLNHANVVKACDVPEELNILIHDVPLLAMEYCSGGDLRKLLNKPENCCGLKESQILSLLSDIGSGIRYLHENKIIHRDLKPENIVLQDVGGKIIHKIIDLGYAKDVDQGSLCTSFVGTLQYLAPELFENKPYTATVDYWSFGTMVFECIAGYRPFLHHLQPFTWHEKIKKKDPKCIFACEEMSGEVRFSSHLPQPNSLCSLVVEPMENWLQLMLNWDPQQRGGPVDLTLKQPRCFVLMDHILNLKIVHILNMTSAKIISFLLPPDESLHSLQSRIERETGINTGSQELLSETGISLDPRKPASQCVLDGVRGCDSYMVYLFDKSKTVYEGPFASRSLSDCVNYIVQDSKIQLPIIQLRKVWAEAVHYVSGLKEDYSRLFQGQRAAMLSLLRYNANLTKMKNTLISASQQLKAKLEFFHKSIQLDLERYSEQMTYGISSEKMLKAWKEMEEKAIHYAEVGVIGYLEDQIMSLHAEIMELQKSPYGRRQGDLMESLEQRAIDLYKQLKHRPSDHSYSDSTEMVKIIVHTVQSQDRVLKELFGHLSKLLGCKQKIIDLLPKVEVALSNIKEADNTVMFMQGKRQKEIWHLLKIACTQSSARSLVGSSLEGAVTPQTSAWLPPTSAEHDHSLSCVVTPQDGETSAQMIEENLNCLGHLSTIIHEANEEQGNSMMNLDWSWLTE
T1 sequence (O14920 1-756): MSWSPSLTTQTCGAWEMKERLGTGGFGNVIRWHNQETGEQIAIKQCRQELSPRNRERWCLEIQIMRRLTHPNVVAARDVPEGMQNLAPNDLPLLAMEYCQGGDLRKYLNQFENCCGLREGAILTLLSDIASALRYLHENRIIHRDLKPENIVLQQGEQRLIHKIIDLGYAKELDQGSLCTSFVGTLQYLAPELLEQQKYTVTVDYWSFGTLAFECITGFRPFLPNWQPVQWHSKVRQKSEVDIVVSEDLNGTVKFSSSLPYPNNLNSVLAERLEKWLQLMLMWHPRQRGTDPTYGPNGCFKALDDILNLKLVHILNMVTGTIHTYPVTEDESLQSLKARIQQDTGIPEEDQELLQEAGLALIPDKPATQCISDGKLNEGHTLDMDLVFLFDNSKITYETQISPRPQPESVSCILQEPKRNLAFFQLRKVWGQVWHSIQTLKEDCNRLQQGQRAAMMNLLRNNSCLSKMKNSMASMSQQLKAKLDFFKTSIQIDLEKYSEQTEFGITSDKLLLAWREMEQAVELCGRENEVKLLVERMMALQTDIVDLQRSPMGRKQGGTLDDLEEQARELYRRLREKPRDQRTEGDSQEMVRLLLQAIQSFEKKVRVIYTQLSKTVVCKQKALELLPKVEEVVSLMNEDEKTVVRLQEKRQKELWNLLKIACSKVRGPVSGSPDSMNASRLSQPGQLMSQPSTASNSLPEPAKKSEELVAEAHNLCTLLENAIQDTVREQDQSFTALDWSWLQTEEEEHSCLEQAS
The series is described as follows: IKK heterodimer Resin Enzyme Assay. The class given is biochemical. Particulars: biotinylated IκBα peptide 5 μM, 1 μM ATP, 25° C., 30 min; read-out: HetD (IKK heterodimer Resin Enzyme Assay expressed as IC50). The source says: cDNAs of human IKK1 and IKK2 were amplified by reverse transcriptase-polymerase chain reaction from human placental RNA (Clonetech). hIKK1 was subcloned into pFastBac HTa (Life Technologies) and expressed as N-terminal His6-tagged fusion protein. The hIKK2 cDNA was amplified using a reverse oligonucleotide primer which incorporated the peptide sequence for a FLAG-epitope tag at the C-terminus of the IKK2 coding region (DYKDDDDKD). The hIKK2:FLAG cDNA was subcloned into the baculovirus vector pFastBac. The rhIKK2 ([…]) mutant was constructed in the same vector used for wild type rhIKK2 using a QuikChange™ mutagenesis kit (Stratagene) Viral stocks of each construct were used to infect insect cells grown in 40L suspension culture. […] Cell lysates were stored at −80° C. until purification of the recombinant proteins was undertaken as described in the succeeding sections.
Isolation of rhIKK1/IKK2 Heterodimer
The heterodimer enzyme was produced by coinfection in a baculovirus system (FLAG IKK2/IKK1 His; MOI=0.1 and I=72 hrs). Infected cells were centrifuged and the cell pellet (10.0 g) was suspended in 50 ml of buffer A. The protein suspension was microfluidized and centrifuged at 100,000×g for 45 min. Imidazole was added to the supernatant to a final concentration of 10 mM. The protein was allowed to bind 25 ml of Ni-NTA resin by mixing for 2 hrs. The protein-resin slurry was poured into a 25 ml column and washed with 250 ml of buffer A containing 10 mM imidazole followed by 125 ml of buffer A containing 50 mM imidazole. Buffer A, containing 300 mM imidazole, was then used to elute the protein. A 75 ml pool was collected and NP-40 was added to a final concentration of 0.1%. The protein solution was then dialyzed against buffer B. The dialyzed heterodimer enzyme was then allowed to bind to 25 ml of anti-FLAG M2 agarose affinity gel overnight with constant mixing. The protein-resin slurry was then centrifuged for 5 min at 2,000 rpm. The supernatant was collected and the resin re-suspended in 100 ml of buffer C containing 0.1% NP-40. The resin was washed with 375 ml of buffer C containing 0.1% NP-40. The protein-resin was poured into a 25 ml column and the enzyme eluted using buffer B containing FLAG peptide. Enzyme fractions (100 ml) were collected and concentrated to 20 ml using an Amicon membrane with molecular weight cut-off of 30 kDa. Bovine serum albumin was added to the concentrated enzyme to final concentration of 0.1%. The enzyme was then aliquoted and stored at −80° C.
IKK heterodimer Resin Enzyme Assay
IKK heterodimer kinase activity was measured using a biotinylated IκBα peptide (Gly-Leu-Lys-Lys-Glu-Arg-Leu-Leu-Asp-Asp-Arg-His-Asp-Ser32-Gly-Leu-Asp-Ser36-Met-Lys-Asp-Glu-Glu) (American Peptide Co.). […] ATP was measured using a Top-Count NXT (Packard).

`Cc1cccc(-c2ccc3c(C(N)=O)nn(-c4ccc(S(N)(=O)=O)cc4)c3c2)c1` [Example 3, 1-[4-(aminosulfonyl)phenyl]-6-(3-methylphenyl)-1H-indazole-3-carboxamide]: the melting point was in the range of 261 to 263 °C.

As to `COc1ccc(-c2ccc3c(C(N)=O)nn(-c4ccc(S(N)(=O)=O)cc4)c3c2)cc1` [Example 1, 1-[4-(aminosulfonyl)phenyl]-6-(4-methoxyphenyl)-1H-indazole-3-carboxamide], the melting point was in the range of 258 to 259 °C. Moreover, the IC50 in series [1] is > 100 µM.

In the case of `Cc1cc(-c2ccc3c(C(N)=O)nn(-c4ccc(S(N)(=O)=O)cc4)c3c2)ccc1F` [Example 5, 1-[4-(aminosulfonyl)phenyl]-6-(4-fluoro-3-methylphenyl)-1H-indazole-3-carboxamide], the melting point lay in the range of 300 to 302 °C. Turning to `NC(=O)c1nn(-c2ccc(S(N)(=O)=O)cc2)c2cc(-c3cccnc3)ccc12` [Example 15, 1-[4-(aminosulfonyl)phenyl]-6-pyridin-3-yl-1H-indazole-3-carboxamide], the melting point was 310 to 313 °C.

Regarding `NC(=O)c1nn(-c2ccc(S(N)(=O)=O)cc2)c2cc(Cc3ccccc3)ccc12` [Example 12, 1-[4-(aminosulfonyl)phenyl]-6-benzyl-1H-indazole-3-carboxamide], the melting point lay within 207 to 209 °C.

Take `CNc1cccc(-c2ccc3c(C(N)=O)nn(-c4ccc(S(N)(=O)=O)cc4)c3c2)c1` [Example 7, 1-[4-(aminosulfonyl)phenyl]-6-[3-(methylamino)phenyl]-1H-indazole-3-carboxamide]: the melting point lay in the range of 159 to 160 °C. Molecule `CCOc1ccc2c(C(N)=O)nn(-c3ccc(S(N)(=O)=O)cc3)c2c1` [Example 13, 1-[4-(aminosulfonyl)phenyl]-6-ethoxy-1H-indazole-3-carboxamide] came in with a melting point of 213 to 214 °C. `Cc1ccc2c(C(N)=O)nn(-c3ccc(S(N)(=O)=O)cc3)c2c1` [Example 9, 1-[4-(aminosufony)phenyl]-6-methyl-1H-indazole-3-carboxamide] showed a melting point of 251 to 252 °C. In turn, `COc1cccc(-c2ccc3c(C(N)=O)nn(-c4ccc(S(N)(=O)=O)cc4)c3c2)c1` [Example 11, 1-[4-(aminosulfonyl)phenyl]-6-(3-methoxyphenyl)-1H-indazole-3-carboxamide] gave a melting point of 229 to 230 °C. In addition, the IC50 in series [1] was 1 µM. The corresponding values for `CN(C)c1cccc(-c2ccc3c(C(N)=O)nn(-c4ccc(S(N)(=O)=O)cc4)c3c2)c1` [Example 6, 1-[4-(aminosulfonyl)phenyl]-6-[3-(dimethylamino)phenyl]-1H-indazole-3-carboxamide] are 237 to 238 °C and > 100 µM.

The molecule `CCc1ccc2c(C(N)=O)nn(-c3ccc(S(N)(=O)=O)cc3)c2c1` [Example 14, 1-[4-(aminosulfonyl)phenyl]-6-ethyl-1H-indazole-3-carboxamide] yielded a melting point of 249 to 251 °C. Still for that read-out and setting: the figure for `NC(=O)c1nn(-c2ccc(S(N)(=O)=O)cc2)c2ccncc12` [Example 8, 1-[4-(aminosulfonyl)phenyl]-1H-pyrazolo[4,3-c]pyridine-3-carboxamide] is 301 to 302 °C; for `NC(=O)c1nn(-c2ccc(S(N)(=O)=O)cc2)c2cc(-c3ccc(F)cc3)ccc12` [Example 2, 1-[4-(aminosulfonyl)phenyl]-6-(4-fluorophenyl)-1H-indazole-3-carboxamide] it is 314 to 315 °C. In turn, `CC(C)(C)c1ccc(-c2ccc3c(C(N)=O)nn(-c4ccc(S(N)(=O)=O)cc4)c3c2)cc1` [Example 4, 1-[4-(aminosulfonyl)phenyl]-6-(4-tert-butylphenyl)-1H-indazole-3-carboxamide] registered a melting point of 262 to 263 °C. In addition, the half-maximal inhibitory concentration (IC50) in series [1] is > 100 µM. The molecule `NC(=O)c1nn(-c2ccc(S(N)(=O)=O)cc2)c2cc(-c3ccccc3)ccc12` [Example 10, 1-[4-(aminosulfonyl)phenyl]-6-phenyl-1H-indazole-3-carboxamide] gave a melting point of 232 to 234 °C.
